In patent US10702518B2, “TAF1 inhibitors for the therapy of cancer” (CeMM—Forschungszentrum für Molekulare Medizin GmbH, priority 2016, dated 2020):
Entries after “also recorded” stand apart in the source; their conditions may differ.

Legend:
EP300 = molecular target: T1, EP300 (Homo sapiens, UniProt Q09472); assay: BromoScan / BromoKdELECT, EP300; format: binding
T1 sequence (Q09472 1049-1156 limits assumed): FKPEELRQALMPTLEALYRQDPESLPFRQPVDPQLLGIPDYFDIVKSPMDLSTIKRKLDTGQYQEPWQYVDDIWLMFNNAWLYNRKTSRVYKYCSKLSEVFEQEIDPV
Procedure: (§1) Bubbles indicate the percentage of inhibition of the binding of the analyzed bromodomains to an acetylated substrate. […] (g) BromoKdELECT assay for CeMMEC1 against TAF1 (2). […] (i) Docking of CeMMEC1 to the second bromodomain of TAF1. 3D model (top panel) and 2D ligand interaction diagram (bottom panel). Red dots in the 3D model indicate water molecules.
(§2) (c) not used (d) KinomeScan profile for CeMMEC1 (10 μM). Bubbles indicate the percentage of inhibition of the binding of the analyzed kinase to an immobilized ligand.

BRD4 = BRD4 (Homo sapiens, UniProt O60885); assay: BromoScan profile, BRD4; format: binding; settings: 10 μM
Source text: as §1

REDS3 cells = assay: RFP reporter expression in REDS3 cells (live cell imaging); format: cell-based, human
Procedure: Cells were seeded on clear flat bottom 96-well or 384-well plates (Corning) and treated with the indicated compounds for the specified conditions. Live cell imaging pictures were taken with the Operetta High Content Screening System (PerkinElmer), 20× objective and non-confocal mode.
Only RFP-positive nuclei were detected and counted.
The increase of RFP fluorescence, detected with the Operetta High Content Screening System (PerkinElmer), 20× objective and non-confocal mode, was used as read-out.
Briefly, the screening was divided in three parts called respectively 1) primary screening, 2) follow up and 3) validation. During the primary screening REDS3 cells were treated with 10 μM of every compound, and live cell imaging pictures were taken in order to assess their ability to induce RFP expression 24 hours later.

THP1 cells [1] = assay: Cell viability of THP1 cells, combination with (S)-JQ1; format: cell-based, human
KBM7 cells = assay: CellTiterGlo viability of control and TAF1 downregulated KBM7 cells; settings: shRNA TAF1 vs control, 96 hours
THP1 cells [2] = assay: Cell cycle assay in THP1 cells; settings: 48 hours
Procedure: (e) Quantification of cells in S-phase by staining the nuclei with PI and analyzing DNA content by FACS. […] Three different biological replicates were performed and 30,000 cells were analysed each time (mean±STD).
For cell cycle analysis, cells were fixed with 70% ethanol for 24 hours, washed with PBS/0.1%-Tween and incubated with RNase for 20 minutes. Nuclei were stained with 5 μg/ml PI (propidium iodide, Sigma) for 10 minutes prior to FACS analysis (BD FACSCalibur Flow Cytometer).

[3] = tested on: c-MYC expression in WT-KBM7; assay: c-MYC expression by RT-PCR in WT-KBM7; format: cell-based, human; settings: 1, 10 and 20 μM, 24 hours
Procedure: (c) Percentage of c-MYC expression in WT-KBM7 treated with the selected compounds, assessed by RT-PCR. 1, 10 and 20 μM of each compound were used to treat cells for 24 hours; DMSO was used as negative control and (S)-JQ1 as positive control. Three biological replicates were performed (mean±STD).
RNA extraction was performed with TRIzol Reagent (Life Technologies) according to the manufacturer's protocol and Reverse Transcription (RT) was performed using the High Capacity cDNA Reverse Transcription Kit (Applied Biosystems) following the standard protocol.
QPCR was performed using the Power SYBR Green Master mix (Invitrogen) as described in the manufacturer's protocol.
Real-time amplification results were normalized to the endogenous housekeeping genes Actin or GAPDH. The relative quantities were calculated using the comparative CT (Cycle Threshold) Method (ΔΔCT Method).

[4] = tested on: 97 representative kinases; assay: KinomeScan profile; format: binding; settings: 10 μM; 97 kinases
Procedure: . The assay was done in duplicate (mean±STD); (b) BromoKdELECT assay for CeMMEC1 against TAF1 (2), BRD9, CREBBP and EP300 bromodomains (11 dilutions, from 10 to 0.017 μM). (c) not used (d) KinomeScan profile for CeMMEC1 (10 μM). Bubbles indicate the percentage of inhibition of the binding of the analyzed kinase to an immobilized ligand. (e) BromoELECT assay for CeMMEC1 and analogs A1, A2, 05, 10, 13, 24, 25, 26, 27, 29, 33 and 39 (10 μM) against BRD4 (1), BRD4 (2), BRD9, CREBBP, EP300 and TAF1 (2). (f, g) Docking poses of analog 30 to TAF1 (green) and BRD4 (magenta). (h) Docking of compound 29 to TAF1, no suitable pose could be identified for BRD4. (i) BromoELECT assay for analog 29 (10 μM) against BRD4 (1), BRD9, CREBBP, EP300 and TAF1 (2).

BRD4 (BD2) = molecular target: T2, BRD4 (BD2) (Homo sapiens, UniProt O60885); assay: AlphaLISA, second bromodomain of BRD4; format: binding; settings: 10 μM
T2 construct: AlphaLISA assays for the first (black columns, BD1) and the second (grey columns, BD2) bromodomains of BRD4
Source text: (§3) The Amplified Luminescent Proximity Homogenous Assay (AlphaLISA©) is the homogenous and chemiluminescence-based method, used to explore the direct interaction of the identified small molecules with BRD4 and therefore, measure the IC50 values of the direct BRD4 inhibitors.
(§4) Briefly, in this assay, the biotinylated histone peptide substrate is captured by streptavidin-coupled donor beads. The GST-tagged bromodomain is recognized and bound by an anti-GST antibody conjugated with an acceptor bead. In absence of an inhibitor, the bromodomain binds to histone peptide substrate. […] The event of a signal (alpha count) can only take place when the interaction partners are in proximity (<200 nm).
(§5) The AlphaLISA was performed for both bromodomains of BRD4 using the BRD4 (BD1) Inhibitor Screening Kit (BPS Bioscience) and BRD4 (BD2) Inhibitor Screening Kit (BPS Bioscience) following the manufacturer's protocol. For the GST full length BRD4 purified from BL21 cells, a mixture of acetylated substrates from the BD1 and BD2 Inhibitor Screening Kit reported above was used.
(§6) Compounds were tested at a final assay concentration of 10 μM in duplicates. […] Reaction was initiated by adding one of the two bromodomains (BD1 or BD2) or the GST full length BRD4. […]

BRD4 (BD1) = molecular target: T3, BRD4 (BD1) (Homo sapiens, UniProt O60885); assay: AlphaLISA, first bromodomain of BRD4; format: binding; settings: 10 μM
T3 construct: AlphaLISA assays for the first (black columns, BD1) and the second (grey columns, BD2) bromodomains of BRD4
Source text: as §3, §4, §5, §6

TAF1 = molecular target: T4, TAF1 (Homo sapiens, UniProt P21675); assay: TAF1 binding assay (FRET/HTRF peptide displacement); settings: FRET analysis, data not shown
T4 construct: TAF1 second bromodomain (Uniprot P21675, residues 1501-1634); made in house; host or cells: E. coli BL21 (DE3)-R3-pRARE2 (stated for the His-tagged construct)
T4 sequence (P21675 1501-1634): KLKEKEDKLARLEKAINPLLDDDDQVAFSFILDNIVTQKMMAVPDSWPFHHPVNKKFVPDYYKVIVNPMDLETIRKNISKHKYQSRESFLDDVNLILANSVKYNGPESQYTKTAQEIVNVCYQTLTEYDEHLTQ
Procedure: TAF1 binding assays were conducted using the EPIgeneous™ Binding Domain kit B (Cisbio Bioassays) according to manufacturer's instructions. Binding was determined by the displacement of an acetylated biotin-peptide from a GST tagged TAF1 protein using HTRF with a Eu3+ conjugated GST antibody donor and streptavidin conjugated acceptor. Compounds were dispensed into assay plates, ProxiPlate-384 Plus (Perkin Elmer) using an Echo 525 Liquid Handler (Labcyte). Binding assays were conducted in a final volume of 20 μl with 5 nM TAF1-GST, 50 nM peptide (SGRGK (ac)GGK (ac)GLGK (ac)GGAK (ac)RHRK (biotin)-acid), 6.25 nM Streptavidin-XL665, 1:200 Anti-GST-Eu3+ cryptate and 0.1% DMSO. Assay reagents were dispensed into plates using a Multidrop combi (Thermo Scientific) and incubated at room temperature for 3 hours. Fluorescence was measured using a PHERAstar microplate reader (BMG) using the HTRF module with dual emission protocol (A=ex. 320 nm em. 665 nm, B=ex. 320 nm em. 620 nm). Raw data were processed to give an HTRF ratio (channel A/B*10000), which was used to generate IC50 curves.

CREBBP = CREBBP (Homo sapiens, UniProt Q92793); assay: BromoScan / BromoELECT / BromoKdELECT, CREBBP; format: binding
Procedure: as §1, §2

BRD9 = molecular target: T5, BRD9 (Homo sapiens, UniProt Q9H8M2); assay: BromoScan / BromoKdELECT, BRD9; format: binding
T5 sequence (Q9H8M2 136-240 limits assumed): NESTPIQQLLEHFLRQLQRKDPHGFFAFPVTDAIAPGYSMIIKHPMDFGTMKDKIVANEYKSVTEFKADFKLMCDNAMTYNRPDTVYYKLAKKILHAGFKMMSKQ
Procedure: as §1, §2

H23 cells = assay: Cell viability of H23 cells, combination with (S)-JQ1; format: cell-based
TAF1 (2) = molecular target: T6, TAF1 (2) (Homo sapiens, UniProt P21675); assay: BromoScan / BromoELECT / BromoKdELECT, TAF1 (2); format: binding
T6 construct: the second bromodomain of TAF1 (TAF1 (2)); purchased DiscoverX Corporation (contract assay); host or cells: T7 phage in E. coli host derived from BL21
T6 sequence (P21675 1519-1628 limits assumed): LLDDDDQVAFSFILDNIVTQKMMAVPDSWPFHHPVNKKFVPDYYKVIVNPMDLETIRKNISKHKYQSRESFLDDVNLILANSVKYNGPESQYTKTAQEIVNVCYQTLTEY
Procedure: as §1, §2

THP1 cells [5] = assay: AnnexinV apoptosis assay in THP1 cells; settings: 72 hours
Procedure: (f) Quantification of AnnexinV positive cells from immunofluorescence images. […] At least 3 biological replicates were performed and more than 1,500 cells were quantified for each point (mean±STD).
Apoptotic cells were detected using the Annexin V-FITC Apoptosis detection kit (Abcam) according to the manufacturer's instruction. Apoptosis quantification was performed with the Harmony software (PerkinElmer) for nuclei and cytoplasm detection and analysis, adapted for the nucleus diameter range and cell shape of the specific cell line used.

CREBBP, sequence (Q92793 1085-1192 limits assumed): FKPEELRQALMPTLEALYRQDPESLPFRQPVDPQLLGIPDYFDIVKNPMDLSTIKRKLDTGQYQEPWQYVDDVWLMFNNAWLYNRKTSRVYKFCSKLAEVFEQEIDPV

For `Cn1cc(C(=O)Nc2ccc3c(c2)OCCO3)c2ccccc2c1=O` [CeMMEC1], the “binding constant, EP300” value (EP300; BromoKdELECT (FIG. 8b)) was “sub-micromolar binding constants”, the “binding to EP300” value (EP300; BromoScan, 10 μM) was “high affinity” and the “binding to BRD4” value (BRD4) was “only bound BRD4 very weakly”. For the same compound, the “RFP expression in REDS3 cells in combination with (S)-JQ1” value (REDS3 cells; combination with (S)-JQ1) was “further boosted RFP expression beyond the increase in single treatments”, the “RFP expression in REDS3 cells” value (REDS3 cells; single agent) was “expressed RFP detected by live cell imaging in a dose-dependent manner; also recorded: comparable induction of RFP expression in REDS3 cells” and the “cell viability, combination with (S)-JQ1” value (THP1 cells [1]) was “more efficiently impairing cell viability than the individual treatments”. The “synergy with (S)-JQ1 (Bliss independence test)” value (THP1 cells [1]) was “confirmed the synergism”, the “cell viability with TAF1 downregulation” value (KBM7 cells) was “impaired cell viability in TAF1 downregulated cells” and the “number of cells in S-phase” value (THP1 cells [2]) was “clear and dose-dependent decrease of the number of cells in S-phase”. The c-MYC expression [3] was “capable of reducing the expression of this oncogene in a dose-dependent manner”, the inhibition of kinases [4] was at most 60% and the “binding to the second bromodomain of BRD4” value (BRD4 (BD2)) was “neither able to bind the first nor the second bromodomain of BRD4”. The “binding to the first bromodomain of BRD4” value (BRD4 (BD1)) was “neither able to bind the first nor the second bromodomain of BRD4”, the “displacement of tetra-acetylated H4 peptide from TAF1 binding site” value (TAF1) was “displaced a tetra-acetylated H4 peptide with good efficacy” and the “binding constant, CREBBP” value (CREBBP; BromoKdELECT (FIG. 8b)) was “sub-micromolar binding constants”. The “binding to CREBBP” value (CREBBP; BromoScan/BromoELECT, 10 μM) was “high affinity”, the “binding constant, BRD9” value (BRD9; BromoKdELECT (FIG. 8b)) was “sub-micromolar binding constants” and the “binding to BRD9” value (BRD9; BromoScan, 10 μM) was “high affinity”. The “cell viability, combination with (S)-JQ1” value (H23 cells) was “more efficiently impairing cell viability than the individual treatments”, the “synergy with (S)-JQ1 (Bliss independence test)” value (H23 cells) was “confirmed the synergism” and the “binding constant, TAF1 (2)” value (TAF1 (2); BromoKdELECT (FIG. 8b)) was “sub-micromolar binding constants”. The Kd (TAF1 (2); BromoKdELECT assay (FIG. 4g)) was 1.4 µM, the “binding to TAF1 (2)” value (TAF1 (2); BromoScan/BromoELECT, 10 μM) was “high affinity” and the “apoptosis (AnnexinV staining)” value (THP1 cells [5]) was “induced apoptosis”.
